{
  "source": "paper PMC4798913",
  "about": "(ACS chemical biology, 2015)",
  "key": {"PRMT4": {"molecular_target": "T1, PRMT4 (Homo sapiens, UniProt Q86X55)", "T1 sequence (Q86X55 1-608)": "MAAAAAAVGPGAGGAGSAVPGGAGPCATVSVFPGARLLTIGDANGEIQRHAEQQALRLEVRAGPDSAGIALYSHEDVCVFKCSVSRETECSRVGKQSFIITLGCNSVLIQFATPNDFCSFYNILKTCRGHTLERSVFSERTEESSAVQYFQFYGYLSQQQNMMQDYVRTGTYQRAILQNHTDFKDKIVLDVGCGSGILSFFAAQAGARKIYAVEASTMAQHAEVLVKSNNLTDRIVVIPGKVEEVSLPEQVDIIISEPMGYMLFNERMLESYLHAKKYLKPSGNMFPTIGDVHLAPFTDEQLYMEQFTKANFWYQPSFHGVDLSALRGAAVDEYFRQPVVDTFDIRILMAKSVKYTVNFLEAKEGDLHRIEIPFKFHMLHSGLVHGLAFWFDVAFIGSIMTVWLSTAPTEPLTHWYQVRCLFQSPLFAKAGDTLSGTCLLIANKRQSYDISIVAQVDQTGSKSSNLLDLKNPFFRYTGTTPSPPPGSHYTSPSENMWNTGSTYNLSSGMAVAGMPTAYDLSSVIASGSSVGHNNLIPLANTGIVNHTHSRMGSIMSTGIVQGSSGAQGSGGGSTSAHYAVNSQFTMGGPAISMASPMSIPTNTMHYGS", "experiment": "PRMT biochemical scintillation proximity assay", "conditions": "read-out: IC50 PRMT4; substrate at Km; triplicate, Mean ± SD; NI: no inhibition"}, "PRMT1 [1]": {"molecular_target": "T2, PRMT1 (Homo sapiens, UniProt Q99873)", "T2 sequence (Q99873 whole entry)": "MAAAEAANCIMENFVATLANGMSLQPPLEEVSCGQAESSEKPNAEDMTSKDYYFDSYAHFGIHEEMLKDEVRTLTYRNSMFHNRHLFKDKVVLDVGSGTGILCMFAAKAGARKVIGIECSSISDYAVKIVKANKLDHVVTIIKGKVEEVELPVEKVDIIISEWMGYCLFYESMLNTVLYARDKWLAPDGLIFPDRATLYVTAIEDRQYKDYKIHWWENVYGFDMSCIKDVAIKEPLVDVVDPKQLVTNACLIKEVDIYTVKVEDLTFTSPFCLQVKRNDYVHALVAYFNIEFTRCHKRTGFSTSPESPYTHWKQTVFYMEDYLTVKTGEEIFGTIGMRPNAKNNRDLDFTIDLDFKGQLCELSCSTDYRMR", "experiment": "Cellular PRMT1 assay", "type": "cell-based", "conditions": "MCF7 cells, 48 h"}, "PRMT1 [2]": {"molecular_target": "T2, PRMT1", "experiment": "PRMT biochemical scintillation proximity assay", "conditions": "read-out: IC50 PRMT1; substrate at Km; triplicate, Mean ± SD; NI: no inhibition"}, "MCF7 cells": {"tested_on": "MCF7 cells", "experiment": "Global arginine methylation Western blot", "type": "cell-based", "conditions": "two days (48 h)"}, "PRMT3": {"molecular_target": "PRMT3 (Homo sapiens, UniProt O60678)", "sequence (O60678 whole entry)": "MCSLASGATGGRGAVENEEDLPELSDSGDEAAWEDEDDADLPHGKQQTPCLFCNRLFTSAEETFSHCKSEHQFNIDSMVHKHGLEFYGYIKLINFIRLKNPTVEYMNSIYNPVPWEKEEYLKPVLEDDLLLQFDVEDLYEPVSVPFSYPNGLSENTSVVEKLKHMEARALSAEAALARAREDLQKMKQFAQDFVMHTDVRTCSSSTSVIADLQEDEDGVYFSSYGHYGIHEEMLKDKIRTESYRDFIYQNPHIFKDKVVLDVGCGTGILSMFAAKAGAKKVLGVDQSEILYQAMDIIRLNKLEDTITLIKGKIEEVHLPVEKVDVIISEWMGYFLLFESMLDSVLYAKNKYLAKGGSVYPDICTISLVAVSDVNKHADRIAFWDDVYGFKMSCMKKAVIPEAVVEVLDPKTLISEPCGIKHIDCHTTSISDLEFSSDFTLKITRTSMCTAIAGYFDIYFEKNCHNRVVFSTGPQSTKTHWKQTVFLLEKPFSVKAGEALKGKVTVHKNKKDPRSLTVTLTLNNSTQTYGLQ", "experiment": "PRMT biochemical scintillation proximity assay", "conditions": "for IC50: read-out: IC50 PRMT3, substrate at Km, triplicate, Mean ± SD, NI: no inhibition"}, "PRMT9": {"molecular_target": "T3, PRMT9 (Homo sapiens, UniProt Q6P2P2)", "T3 sequence (Q6P2P2 1-845)": "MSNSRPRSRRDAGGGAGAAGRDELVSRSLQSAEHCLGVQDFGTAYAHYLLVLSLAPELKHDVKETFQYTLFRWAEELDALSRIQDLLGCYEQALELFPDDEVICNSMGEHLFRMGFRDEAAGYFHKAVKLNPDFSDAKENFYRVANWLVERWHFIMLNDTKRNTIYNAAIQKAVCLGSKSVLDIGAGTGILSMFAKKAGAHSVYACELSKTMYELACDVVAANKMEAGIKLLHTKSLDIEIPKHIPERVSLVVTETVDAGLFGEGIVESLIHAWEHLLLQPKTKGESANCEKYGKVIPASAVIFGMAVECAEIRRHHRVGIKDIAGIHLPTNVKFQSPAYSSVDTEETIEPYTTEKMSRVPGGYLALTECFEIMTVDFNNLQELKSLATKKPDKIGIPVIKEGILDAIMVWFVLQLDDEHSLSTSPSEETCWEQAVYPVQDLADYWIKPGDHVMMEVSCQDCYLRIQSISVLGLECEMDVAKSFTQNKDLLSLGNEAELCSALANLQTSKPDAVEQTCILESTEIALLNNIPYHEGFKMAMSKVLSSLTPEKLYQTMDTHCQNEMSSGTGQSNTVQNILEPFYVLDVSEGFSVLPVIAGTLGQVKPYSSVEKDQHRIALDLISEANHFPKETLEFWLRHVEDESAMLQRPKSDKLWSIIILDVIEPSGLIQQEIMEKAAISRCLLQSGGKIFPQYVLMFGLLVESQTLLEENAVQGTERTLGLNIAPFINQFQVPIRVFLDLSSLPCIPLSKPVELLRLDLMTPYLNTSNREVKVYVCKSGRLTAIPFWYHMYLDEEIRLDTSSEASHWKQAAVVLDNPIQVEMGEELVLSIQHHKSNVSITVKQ", "experiment": "PRMT biochemical scintillation proximity assay", "conditions": "for inhibition of type II PRMT (PRMT9): concentration not given"}, "PRMT5": {"molecular_target": "PRMT5 (Homo sapiens, UniProt O14744)", "sequence (O14744 whole entry)": "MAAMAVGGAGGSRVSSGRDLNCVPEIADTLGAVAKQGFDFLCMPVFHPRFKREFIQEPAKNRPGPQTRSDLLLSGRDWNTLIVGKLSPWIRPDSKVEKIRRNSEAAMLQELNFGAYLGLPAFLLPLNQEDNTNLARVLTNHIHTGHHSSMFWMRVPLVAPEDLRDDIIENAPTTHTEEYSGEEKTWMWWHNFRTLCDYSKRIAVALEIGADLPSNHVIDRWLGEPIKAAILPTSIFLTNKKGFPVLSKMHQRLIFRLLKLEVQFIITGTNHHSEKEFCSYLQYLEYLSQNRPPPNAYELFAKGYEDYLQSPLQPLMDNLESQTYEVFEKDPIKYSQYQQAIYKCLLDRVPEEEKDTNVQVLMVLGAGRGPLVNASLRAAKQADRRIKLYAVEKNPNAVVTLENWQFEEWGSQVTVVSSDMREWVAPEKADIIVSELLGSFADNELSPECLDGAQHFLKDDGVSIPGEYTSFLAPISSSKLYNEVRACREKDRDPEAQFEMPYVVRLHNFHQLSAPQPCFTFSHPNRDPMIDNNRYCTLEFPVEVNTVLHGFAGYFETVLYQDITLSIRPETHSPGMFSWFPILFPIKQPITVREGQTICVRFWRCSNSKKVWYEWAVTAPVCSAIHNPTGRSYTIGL", "sequence (Q9BQA1 whole entry partner)": "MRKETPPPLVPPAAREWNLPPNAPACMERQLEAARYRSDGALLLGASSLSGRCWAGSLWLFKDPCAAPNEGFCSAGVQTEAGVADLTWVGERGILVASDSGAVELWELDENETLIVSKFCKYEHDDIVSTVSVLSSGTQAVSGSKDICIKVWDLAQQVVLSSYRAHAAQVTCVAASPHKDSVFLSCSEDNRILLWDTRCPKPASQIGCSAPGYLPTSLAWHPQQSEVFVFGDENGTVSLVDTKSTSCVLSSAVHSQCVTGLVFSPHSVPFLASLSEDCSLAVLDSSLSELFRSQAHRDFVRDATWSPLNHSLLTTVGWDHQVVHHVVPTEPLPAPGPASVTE", "experiment": "PRMT biochemical scintillation proximity assay", "conditions": "for inhibition of type II PRMT (PRMT5): concentration not given"}, "PRMT7": {"molecular_target": "T4, PRMT7 (Homo sapiens, UniProt Q9NVM4)", "T4 sequence (Q9NVM4 1-692)": "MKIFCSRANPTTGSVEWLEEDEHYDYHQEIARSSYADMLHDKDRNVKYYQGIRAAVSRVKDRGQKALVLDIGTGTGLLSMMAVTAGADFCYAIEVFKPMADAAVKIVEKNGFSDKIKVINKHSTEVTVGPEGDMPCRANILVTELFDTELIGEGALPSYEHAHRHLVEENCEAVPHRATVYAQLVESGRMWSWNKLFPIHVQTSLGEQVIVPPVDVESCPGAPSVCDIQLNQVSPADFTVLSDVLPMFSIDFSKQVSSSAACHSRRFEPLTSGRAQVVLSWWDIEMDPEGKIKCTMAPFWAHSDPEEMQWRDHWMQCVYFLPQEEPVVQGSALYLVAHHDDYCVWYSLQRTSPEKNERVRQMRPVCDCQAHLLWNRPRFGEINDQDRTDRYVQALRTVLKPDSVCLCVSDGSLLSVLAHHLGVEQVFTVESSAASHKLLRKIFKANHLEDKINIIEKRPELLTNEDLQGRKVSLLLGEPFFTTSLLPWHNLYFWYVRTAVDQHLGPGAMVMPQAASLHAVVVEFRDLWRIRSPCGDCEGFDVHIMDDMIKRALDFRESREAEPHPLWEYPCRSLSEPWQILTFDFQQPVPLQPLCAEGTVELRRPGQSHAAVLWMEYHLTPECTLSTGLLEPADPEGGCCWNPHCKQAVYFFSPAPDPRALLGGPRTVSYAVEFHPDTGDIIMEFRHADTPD", "experiment": "PRMT biochemical scintillation proximity assay", "conditions": "for inhibition of type III PRMT (PRMT7): concentration not given"}, "PRMT6": {"molecular_target": "PRMT6 (Homo sapiens, UniProt Q96LA8)", "sequence (Q96LA8 whole entry)": "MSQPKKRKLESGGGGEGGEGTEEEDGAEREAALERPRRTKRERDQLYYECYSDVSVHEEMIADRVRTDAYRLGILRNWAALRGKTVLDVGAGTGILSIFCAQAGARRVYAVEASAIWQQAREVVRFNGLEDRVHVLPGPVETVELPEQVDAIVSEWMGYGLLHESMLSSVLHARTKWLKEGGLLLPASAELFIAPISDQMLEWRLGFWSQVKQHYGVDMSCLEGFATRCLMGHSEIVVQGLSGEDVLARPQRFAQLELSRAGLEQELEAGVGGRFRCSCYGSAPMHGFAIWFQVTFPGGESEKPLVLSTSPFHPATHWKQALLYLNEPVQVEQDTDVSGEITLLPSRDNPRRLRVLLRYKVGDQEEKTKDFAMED", "conditions": "100 μM SAM; PRMT6 alone Tm = 52 °C"}, "[3]": {"tested_on": "eight different cell lines", "experiment": "Cell growth assay", "type": "cell-based", "conditions": "96 h treatment"}, "HEK293 cells [4]": {"tested_on": "HEK293 cells", "experiment": "Global arginine methylation Western blot", "conditions": "two days"}, "[5]": {"tested_on": "25 PKMTs and DNMTs, and 3 histone lysine demethylases", "experiment": "Selectivity panel of methyltransferases and demethylases", "type": "biochemical", "conditions": "up to 10 μM (tested at 1 μM and 10 μM)"}, "HEK293 cells [6]": {"tested_on": "HEK293 cells", "experiment": "Cell growth assay", "type": "cell-based", "conditions": "1 μM, 4-day and long-term (10 days) treatment"}, "[7]": {"tested_on": "9 methyllysine or methylarginine reader proteins", "experiment": "DSF or DSLS binding to reader proteins"}},
  "data": [
    {"smiles": "CC(C)Oc1ccc(-c2c[nH]cc2CN(C)CCO)cc1", "note": "[MS094]", "values": [
      {"measurement": "IC50", "setting": "PRMT4", "result": "> 10", "unit": "µM"},
      {"measurement": "effect on cellular levels of H4R3me2a", "setting": "PRMT1 [1]", "result": "did not decrease"},
      {"measurement": "IC50", "setting": "PRMT1 [2]", "result": "> 10", "unit": "µM"},
      {"measurement": "global levels of arginine asymmetric dimethylation (Rme2a)", "setting": "MCF7 cells", "result": "did not change"},
      {"measurement": "global levels of arginine monomethylation (Rme1)", "setting": "MCF7 cells", "result": "did not change"},
      {"measurement": "global levels of arginine symmetric dimethylation (Rme2s)", "setting": "MCF7 cells", "result": "did not change"},
      {"measurement": "IC50", "setting": "PRMT3", "result": "> 10", "unit": "µM"}
    ]},
    {"smiles": "CN(CCN)Cc1n[nH]nc1-c1cccc(C(F)(F)F)c1", "note": "[Compound 1]", "values": [
      {"measurement": "inhibition of type II PRMT (PRMT9)", "setting": "PRMT9", "result": "did not inhibit"},
      {"measurement": "inhibition of type II PRMT (PRMT5)", "setting": "PRMT5", "result": "did not inhibit"},
      {"measurement": "inhibition of type III PRMT (PRMT7)", "setting": "PRMT7", "result": "did not inhibit"}
    ]},
    {"smiles": "CC(C)Oc1ccc(-c2c[nH]cc2CN(C)CC(N)=O)cc1", "note": "[Compound 5]", "values": [
      {"measurement": "IC50", "setting": "PRMT4", "result": "> 10", "unit": "µM"},
      {"measurement": "effect on cellular levels of H4R3me2a", "setting": "PRMT1 [1]", "result": "did not decrease"},
      {"measurement": "IC50", "setting": "PRMT1 [2]", "result": "> 10", "unit": "µM"},
      {"measurement": "global levels of arginine asymmetric dimethylation (Rme2a)", "setting": "MCF7 cells", "result": "did not change"},
      {"measurement": "global levels of arginine monomethylation (Rme1)", "setting": "MCF7 cells", "result": "did not change"},
      {"measurement": "global levels of arginine symmetric dimethylation (Rme2s)", "setting": "MCF7 cells", "result": "did not change"},
      {"measurement": "IC50", "setting": "PRMT3", "result": "> 10", "unit": "µM"}
    ]},
    {"smiles": "CC(C)Oc1ccc(-c2c[nH]cc2C(=O)N(C)CCN)cc1", "note": "[Compound 6]", "values": [
      {"measurement": "IC50", "setting": "PRMT4", "result": "> 10", "unit": "µM"},
      {"measurement": "effect on cellular levels of H4R3me2a", "setting": "PRMT1 [1]", "result": "did not decrease"},
      {"measurement": "IC50", "setting": "PRMT1 [2]", "result": "> 10", "unit": "µM"},
      {"measurement": "global levels of arginine asymmetric dimethylation (Rme2a)", "setting": "MCF7 cells", "result": "did not change"},
      {"measurement": "global levels of arginine monomethylation (Rme1)", "setting": "MCF7 cells", "result": "did not change"},
      {"measurement": "global levels of arginine symmetric dimethylation (Rme2s)", "setting": "MCF7 cells", "result": "did not change"},
      {"measurement": "IC50", "setting": "PRMT3", "result": "> 10", "unit": "µM"}
    ]},
    {"smiles": "C[S+](CC[C@H](N)C(=O)O)C[C@H]1O[C@@H](n2cnc3c(N)ncnc32)[C@H](O)[C@@H]1O", "note": "(stereo partly drawn) [SAM, S-5′-adenosyl-L-methionine]", "values": [
      {"measurement": "ΔTm PRMT6 (DSF)", "setting": "PRMT6", "result": 1.6, "unit": "°C"}
    ]},
    {"smiles": "CN(CCN)Cc1c[nH]cc1-c1cccc(C(F)(F)F)c1", "note": "[Compound 2]", "values": [
      {"measurement": "inhibition of type II PRMT (PRMT9)", "setting": "PRMT9", "result": "did not inhibit"},
      {"measurement": "inhibition of type II PRMT (PRMT5)", "setting": "PRMT5", "result": "did not inhibit"},
      {"measurement": "inhibition of type III PRMT (PRMT7)", "setting": "PRMT7", "result": "did not inhibit"}
    ]},
    {"smiles": "CC(C)Oc1ccc(-c2c[nH]cc2CN(C)CCN)cc1", "note": "[MS023]", "values": [
      {"measurement": "effect on cell growth", "setting": "[3]; concentrations up to 1 μM, all lines except HEK293", "result": "did not significantly impact cell growth"},
      {"measurement": "effect on cell growth", "setting": "[3]; higher concentrations (e.g., 10 μM, 50 μM)", "result": "decreased cell growth in most of tested cell lines"},
      {"measurement": "inhibition of PRMT9 (type II)", "setting": "PRMT9; concentrations up to 10 μM", "result": "did not inhibit"},
      {"measurement": "inhibition of PRMT5 (type II)", "setting": "PRMT5; concentrations up to 10 μM", "result": "did not inhibit"},
      {"measurement": "global levels of arginine asymmetric dimethylation (Rme2a)", "setting": "HEK293 cells [4]", "result": "significant decrease"},
      {"measurement": "global levels of arginine monomethylation (Rme1)", "setting": "HEK293 cells [4]", "result": "increase"},
      {"measurement": "global levels of arginine symmetric dimethylation (Rme2s)", "setting": "HEK293 cells [4]", "result": "increase"},
      {"measurement": "inhibition of 25 PKMTs and DNMTs and 3 histone lysine demethylases", "setting": "[5]", "result": "did not inhibit"},
      {"measurement": "effect on cell growth", "setting": "HEK293 cells [6]", "result": "greatly affecting cell growth"},
      {"measurement": "binding to 9 methyllysine or methylarginine reader proteins", "setting": "[7]", "result": "did not show binding"},
      {"measurement": "inhibition of PRMT7 (type III)", "setting": "PRMT7; concentrations up to 10 μM", "result": "did not inhibit"},
      {"measurement": "global levels of arginine asymmetric dimethylation (Rme2a)", "setting": "MCF7 cells", "result": "significant decrease"},
      {"measurement": "global levels of arginine monomethylation (Rme1)", "setting": "MCF7 cells", "result": "increase"},
      {"measurement": "global levels of arginine symmetric dimethylation (Rme2s)", "setting": "MCF7 cells", "result": "increase"},
      {"measurement": "pattern of inhibition (MOA) for PRMT3", "setting": "PRMT3; IC50 at different SAM and peptide concentrations", "result": "noncompetitive with the peptide substrate but uncompetitive with the cofactor SAM"}
    ]}
  ]
}
